# Test results reported in patent US20040156854A1, “Methods for the identification, assessment, and treatment of patients with proteasome inhibition therapy” (priority 2002, published 2004).
# Key:
# [1] = parameters: species or system human; settings: in vivo
# Method: (§1) A multicenter, open-label, non-randomized Phase 2 trial was conducted, wherein enrolled were patients with relapsed myeloma that was refractory to therapy. Patients were treated with 1.3 mg of bortezomib per square meter of body surface area, twice weekly for two weeks, followed by one week without treatment, for up to eight cycles (24 weeks).
# (§2) Statistical analysis focused on the need to estimate response rates within specified limits of accuracy in order to determine if either of the two dose levels 1.0 or 1.3 mg/m^2/dose alone or in combination with dexamethasone are sufficiently efficacious to warrant further clinical study. This study was noncomparative in nature; therefore efficacy comparisons between the two doses of bortezomib were not performed. In addition, this study provided safety data that helped to characterize the potential toxicity of treatment at the two evaluated dose levels for up to eight cycles of therapy.
# Over 80% of the 78 patients completed 2 or more cycles of treatment, 62% completed 4 or more cycles, and 27% completed 8 cycles.
# [2] = test system: human tumor xenograft models; settings: cited from earlier work
# [3] = test system: OVCAR-3 and RPMI8226 resistant sub-clones; assay: Bortezomib resistant tumor cell lines generated by repeated dosing: resistance to bortezomib; assay type: cell-based; settings: sub-clones selected after dosing with 3-5 times the LD50; vs parental lines
# Method: In order to better understand the specific mechanism(s) by which proteasome inhibitors exert their apoptotic effects, as well as to elucidate mechanisms by which those effects may be subverted, bortezomib resistant tumor cell lines were generated. […] The drug was then removed and surviving cells were allowed to recover for 24 to 72 hours. This process was then repeated for multiple rounds with the bortezomib dose doubled each time. After cells had been dosed with 3-5 times the LD50, several individual cell lines were sub-cloned from single cell colonies. […] This strategy was applied to both ovarian tumor cell lines (OVCAR-3) and myeloma tumor cell lines (RPMI8226) and multiple sub-clones were characterized. The resistant cell lines were then subject to gene expression profiling using the Affymetrix U133 microarray. A comparison of genes differentially expressed in sensitive parental (S) versus resistant sub-clones (R) highlighted several genes that were also identified in analysis of sensitive and resistant myeloma biopsies. The number identified in Table 8 corresponds to the marker number identification in Table 1. Such results not only highlight a potential relationship between expression of these genes and bortezomib sensitivity, but also support the validity of methods used to define response genes in clinical samples.
# [4] = test system: relapsed/refractory multiple myeloma; assay: Open-label Phase II study of bortezomib in relapsed, refractory myeloma: IRC confirmed response (Blade criteria); assay type: in vivo, human
# Method: An Open-Label Phase II Study of Bortezomib in Patients with Myeloma Who Have Relapsed Following Front-Line Therapy and are Refractory to their Most Recent Therapy
# as §1, §2
# A formal statistical analysis plan was developed and finalized prior to database lock. The primary efficacy analyses were performed on the intent-to-treat (ITT) population. The primary efficacy analysis were performed on the rates of responders, where a responder was defined as a CR, PR, or MR using the criteria prospectively established in Table C. Two-sided 90% confidence limits on proportions of responders in each dose group were established, corresponding to a 95% one-sided lower limit.
# Based on the criteria reported by Kraut et al., J. Clin. Oncol. 16(2): 589-592 (1998) and Blade et al., Br. J. Haematol. 102(5): 1115-1123 (1998). In patients with CR, bone marrow was analyzed using PCR for verification of CR at the molecular level.
# The Independent Review Committee (IRC) evaluation of confirmed response to treatment with bortezomib alone is provided in Table D; further categorization of response for those patients who experienced partial remission is provided in Table E. This independent panel panel of three medical oncologists reviewed all data for 193 evaluable patients in the trial and assigned response using Blade criteria (Table C). […] An additional 46 (24%) of patients had evidence for stable disease (NC, no change) in response to bortezomib alone, which reflects an improvement in status for these patients who were progressing at the time of study entry. Based on the IRC assessment, 38 (20%) of the 193 patients had progressive disease and an additional 42 patients (22%) were considered not evaluable for response by the IRC. […] See Richardson PG, et al., New Eng. J. Med.; 348: 2609-17 (2003).
# [5] = IRC assessment, bortezomib alone, N = 193
# [6] = IRC confirmed, bortezomib alone, N = 193
structure (smiles),measurement,setting,value
"CC(C)C[C@H](NC(=O)[C@H](Cc1ccccc1)NC(=O)c1cnccn1)B(O)O [bortezomib, N-pyrazinecarbonyl-L-phenylalanine-L-leucineboronic acid]",tolerability of the dose,[1],well tolerated
same,antitumor activity,[2],demonstrated antitumor activity
same,resistance to bortezomib of resistant sub-clones,[3],5-10 fold
same,CR+PR rate,"[4]; 202 patients enrolled, PS-341 alone, prior to added dexamethasone",27%
same,overall response rate to PS-341 alone,"[4]; 202 patients enrolled, prior to any patients receiving added dexamethasone",35%
same,"Not Evaluable for response, number of patients",[4]; [5],42 patients
same,"Not Evaluable for response, percent of patients",[4]; [5],22%
same,"Complete + Partial + Minor Responses, number of patients","[4]; IRC confirmed, bortezomib alone, 1.3 mg/m2 twice weekly, N = 193",67 patients
same,"Complete + Near Complete Remissions (NCR), number of patients",[4]; [6],19 patients
same,"Complete + Near Complete Remissions (NCR), percent of patients",[4]; [6],10%
same,"Complete + Partial + Minor Responses, percent of patients",[4]; [6],35%
same,"Complete + Partial Remissions, number of patients",[4]; [6],53 patients
same,"Complete + Partial Remissions, percent of patients",[4]; [6],27%
same,"Complete Remission (CR), number of patients",[4]; [6],19 patients
same,"Complete Remission (CR), percent of patients",[4]; [6],4%
same,"Minor Response (MR), number of patients",[4]; [6],14 patients
same,"Minor Response (MR), percent of patients",[4]; [6],5%
same,"No Change (stable disease), number of patients",[4]; [6],46 patients
same,"No Change (stable disease), percent of patients",[4]; [6],27%
same,"Partial Remission (PR), number of patients",[4]; [6],34 patients
same,"Partial Remission (PR), percent of patients",[4]; [6],23%
same,"Progressive Disease, number of patients",[4]; [6],38 patients
same,"Progressive Disease, percent of patients",[4]; [6],20%
